Where a name gives a salt, the structure may show the parent alone.
Columns and labels:
[1] = target: T1, α4(2)β2(2)β2L15’M receptors (Homo sapiens, UniProt P17787+P43681, L280M); experiment: Silent agonism of the TQS-sensitive α4β2L15’M mutant receptor; format: cell-based
T1 construct: expressed in transfected cells; host or cells: Xenopus laevis oocytes (injected RNA)
Experimental: We conducted a screen of the other sulfonium compounds on the α4β2L15’M receptors and identified at least two compounds that gave potentiated responses above our limit of detection indicated by the dotted line in Figure 8B.
Figure 8 Silent agonism of an α4β2 mutant receptor that is sensitive to the α7 PAM TQS. (A) The averaged raw data of responses of eight oocytes expressing the β2-6-α4 concatamer and the β2L15’M mutant to 100 µM of the sulfonium agonist S1, applied alone or co-applied with 30 µM racemic TQS. […] (B) Evaluation of the effects of the sulfonium compounds, applied alone at 100 µM or co-applied with 30 µM TQS to α4(2)β2(2)β2L15’M receptors. […]
Solutions were applied from 96-well plates via disposable tips. […] The responses were calculated as both peak current amplitudes and net charge, as previously described. Data were collected at 50 Hz, filtered at 20 Hz for α7 receptors or filtered at 5 Hz for heteromeric nAChR, and analyzed by Clampfit (Molecular Devices, San Jose, CA, USA) and Excel (Microsoft, Redmond, WA, USA). Data were expressed as means ± SEM from at least four oocytes for each experiment and plotted with Kaleidagraph 4.5.2 (Abelbeck Software, Reading, PA, USA). Multi-cell averages were calculated for comparisons of complex responses. […]

α3β4 nAChR = target: T2, α3β4 nAChR (Homo sapiens, UniProt P30926+P32297); experiment: Inhibition of α3β4 100 µM ACh-evoked peak currents; format: cell-based; conditions: co-application with 100 µM ACh, peak currents
T2 construct: expressed in transfected cells; host or cells: Xenopus laevis oocytes (injected RNA)
T2 sequence (P32297 32-505): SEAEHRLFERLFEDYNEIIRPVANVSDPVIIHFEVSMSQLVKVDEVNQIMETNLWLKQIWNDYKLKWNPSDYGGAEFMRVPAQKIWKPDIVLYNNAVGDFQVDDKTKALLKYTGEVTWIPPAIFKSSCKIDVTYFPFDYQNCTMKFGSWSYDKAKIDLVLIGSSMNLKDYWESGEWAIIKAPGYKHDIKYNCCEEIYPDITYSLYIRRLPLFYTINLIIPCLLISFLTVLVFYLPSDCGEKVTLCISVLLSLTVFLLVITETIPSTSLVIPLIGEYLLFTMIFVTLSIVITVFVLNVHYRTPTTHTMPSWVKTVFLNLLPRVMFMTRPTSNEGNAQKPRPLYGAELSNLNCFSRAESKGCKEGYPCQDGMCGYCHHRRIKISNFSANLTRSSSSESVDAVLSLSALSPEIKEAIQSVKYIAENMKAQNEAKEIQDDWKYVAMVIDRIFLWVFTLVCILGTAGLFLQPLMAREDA
T2 sequence (P30926 22-498): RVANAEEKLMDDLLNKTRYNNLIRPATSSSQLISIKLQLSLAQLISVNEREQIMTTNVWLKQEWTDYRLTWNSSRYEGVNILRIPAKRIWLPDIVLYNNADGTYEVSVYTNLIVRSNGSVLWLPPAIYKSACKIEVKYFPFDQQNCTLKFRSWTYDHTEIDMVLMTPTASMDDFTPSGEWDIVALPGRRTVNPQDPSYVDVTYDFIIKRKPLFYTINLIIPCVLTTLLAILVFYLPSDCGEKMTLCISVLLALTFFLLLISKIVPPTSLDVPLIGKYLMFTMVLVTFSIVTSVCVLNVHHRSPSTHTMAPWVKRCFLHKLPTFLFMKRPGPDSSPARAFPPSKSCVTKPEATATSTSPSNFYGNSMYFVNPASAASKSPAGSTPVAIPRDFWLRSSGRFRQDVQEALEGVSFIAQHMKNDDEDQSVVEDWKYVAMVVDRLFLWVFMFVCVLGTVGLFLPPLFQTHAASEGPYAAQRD
Experimental: Although none of the other sulfonium compounds activated neuronal heteromeric receptors, several of them produced inhibition of ACh-evoked responses. Shown in Figure 7A are concentration-response studies for the compounds that were active antagonists of α3β4 nAChR (Table 3). Some compounds were also tested as antagonists of α4β2 subtypes formed with concatamers (Figure 7B).
Figure 7 Inhibition of heteromeric nAChR by sulfonium compounds. (A) Inhibition of α3β4 100 µM ACh-evoked peak currents by the co-application of the sulfonium compounds. Data are the averaged of six to eight oocytes (±SEM). To confirm the stability of the ACh responses, applications of ACh plus the sulfonium compounds were alternated with applications of ACh alone. (B) Inhibition of ACh control peak-current responses of α4-containing nAChR formed with concatamers by 100 µM of the sulfonium compounds indicated. Data are the average of six to eight oocytes (±SEM).
Experiments were conducted using OpusXpress 6000A (Molecular Devices, Union City, CA, USA). Both the voltage and current electrodes were filled with 3 M KCl. Oocytes were voltage-clamped at −60 mV at room temperature (24 °C). The oocytes were bath-perfused with Ringer’s solution (115 mM NaCl, 2.5 mM KCl, 1.8 mM CaCl2, 10 mM HEPES, and 1 μM atropine, pH 7.2) at 2 mL/min for α7 receptors, or 4 mL/min for heteromeric nAChR. To evaluate the effects of experimental compounds, responses were compared to control ACh-evoked responses, defined as the average of two initial applications of ACh made before test applications. ACh control concentrations were 60 µM for α7 receptors; 100 µM for α4(3)β2(2) and α3β4 receptors; 30 µM for α4β2α6β2β3 and muscle-type (αβ1εδ) receptors; and 10 µM for α4(3)β2(2) and α4(2)β2(2)α5 receptors.
Solutions were applied from 96-well plates via disposable tips. Drug applications were 12 s in duration, followed by 181 s washout periods for α7 receptors, or 6 s in duration followed by 301 s washout periods for heteromeric nAChR. The responses were calculated as both peak current amplitudes and net charge, as previously described. Data were collected at 50 Hz, filtered at 20 Hz for α7 receptors or filtered at 5 Hz for heteromeric nAChR, and analyzed by Clampfit (Molecular Devices, San Jose, CA, USA) and Excel (Microsoft, Redmond, WA, USA). Data were expressed as means ± SEM from at least four oocytes for each experiment and plotted with Kaleidagraph 4.5.2 (Abelbeck Software, Reading, PA, USA). Multi-cell averages were calculated for comparisons of complex responses. Averages of the normalized data were calculated for each of the 10,322 points in each of the 206.44 s traces (acquired at 50 Hz), as well as the standard errors for those averages.

T1 sequence (P17787 26-502, stated change not applied): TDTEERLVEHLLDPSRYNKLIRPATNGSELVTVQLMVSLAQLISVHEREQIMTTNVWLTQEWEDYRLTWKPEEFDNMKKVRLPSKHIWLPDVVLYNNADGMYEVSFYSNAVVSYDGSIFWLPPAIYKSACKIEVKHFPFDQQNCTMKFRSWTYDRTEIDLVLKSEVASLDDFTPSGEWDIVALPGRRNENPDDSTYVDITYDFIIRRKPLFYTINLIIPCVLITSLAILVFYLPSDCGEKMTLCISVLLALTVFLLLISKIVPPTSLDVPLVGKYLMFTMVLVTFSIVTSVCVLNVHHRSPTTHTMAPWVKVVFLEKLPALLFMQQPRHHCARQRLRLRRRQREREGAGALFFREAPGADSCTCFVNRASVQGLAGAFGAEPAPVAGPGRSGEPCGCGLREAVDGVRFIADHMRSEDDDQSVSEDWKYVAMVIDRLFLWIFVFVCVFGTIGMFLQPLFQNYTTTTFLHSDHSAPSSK
T1 sequence (P43681 27-627): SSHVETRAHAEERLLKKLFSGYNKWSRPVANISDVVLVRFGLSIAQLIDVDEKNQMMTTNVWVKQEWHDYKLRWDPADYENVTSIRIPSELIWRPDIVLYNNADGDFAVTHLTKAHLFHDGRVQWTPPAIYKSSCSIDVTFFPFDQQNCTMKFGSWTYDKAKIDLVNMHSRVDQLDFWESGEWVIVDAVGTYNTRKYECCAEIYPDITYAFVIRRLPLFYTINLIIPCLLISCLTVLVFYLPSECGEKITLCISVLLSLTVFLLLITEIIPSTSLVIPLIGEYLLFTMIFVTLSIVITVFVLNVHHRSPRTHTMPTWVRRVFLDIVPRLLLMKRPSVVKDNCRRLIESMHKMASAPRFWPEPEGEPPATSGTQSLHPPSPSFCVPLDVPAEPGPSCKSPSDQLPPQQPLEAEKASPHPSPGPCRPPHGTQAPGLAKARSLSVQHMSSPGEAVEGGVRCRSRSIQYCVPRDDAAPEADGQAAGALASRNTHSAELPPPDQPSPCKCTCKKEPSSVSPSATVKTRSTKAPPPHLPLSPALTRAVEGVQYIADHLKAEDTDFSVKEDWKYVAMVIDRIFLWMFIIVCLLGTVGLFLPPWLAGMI
T1 sequence (P17787 26-502 L280M): as the sequence (P17787 26-502, stated change not applied) above, with L255M counted along it

Compound: C[S+](C)C.[I-] [Compound S1, trimethylsulfonium iodide]
- activation of α4β2L15’M mutant receptors ([1]; 100 µM applied alone): activated the α4β2L15’M mutant receptors
- response on co-application with TQS ([1]; 100 µM compound with 30 µM TQS, limit of detection 20 nA): potentiated by TQS

Compound: C[S+](C)c1ccc(O)cc1 [Compound S9, (4-hydroxyphenyl)dimethylsulfonium methyl sulfate]
- IC50 (α3β4 nAChR): 124 ± 22 µM

Source: article PMC8464850, “Sulfonium Ligands of the α7 nAChR” (Molecules, 2021)
